Reference: PubChem BioAssay (NCI)
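Protocol summary: plate cells (96-well), add compound at 5 concentrations, incubate 48 h, interpolate endpoints linearly. The concentration for full growth arrest is given as TGI.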 The source made the active and inactive calls. No stated cut-off is given here; in the data, active means GI50 below about 0.43 µM; inactive means the rest.

Key:
Test in all cases: NCI-60 cell line screen, 48 h
SF-268 CNS = tested on: SF-268 CNS
SK-MEL-28 melanoma = tested on: SK-MEL-28 melanoma
UACC-257 melanoma = tested on: UACC-257 melanoma
HOP-92 NSCLC = tested on: HOP-92 NSCLC
DLD-1 colon = tested on: DLD-1 colon
OVCAR-8 ovarian = tested on: OVCAR-8 ovarian
UO-31 renal = tested on: UO-31 renal
SNB-78 CNS = tested on: SNB-78 CNS
T-47D breast = tested on: T-47D breast
OVCAR-3 ovarian = tested on: OVCAR-3 ovarian
A549 NSCLC = tested on: A549 NSCLC
SF-295 CNS = tested on: SF-295 CNS
U251 CNS = tested on: U251 CNS
CAKI-1 renal = tested on: CAKI-1 renal
NCI-H23 lung = tested on: NCI-H23 lung
CCRF-CEM leukemia = tested on: CCRF-CEM leukemia
KM12 colon = tested on: KM12 colon
SNB-19 CNS = tested on: SNB-19 CNS
NCI-H226 lung = tested on: NCI-H226 lung
SN12C renal = tested on: SN12C renal
DU-145 prostate = tested on: DU-145 prostate
COLO 205 colon = tested on: COLO 205 colon
MOLT-4 leukemia = tested on: MOLT-4 leukemia
EKVX NSCLC = tested on: EKVX NSCLC
ACHN renal = tested on: ACHN renal
OVCAR-5 ovarian = tested on: OVCAR-5 ovarian
MDA-MB-231 breast = tested on: MDA-MB-231 breast
IGROV1 ovarian = tested on: IGROV1 ovarian
SW-620 colon = tested on: SW-620 colon
MDA-MB-435 = tested on: MDA-MB-435
SF-539 CNS = tested on: SF-539 CNS
KM20L2 colon = tested on: KM20L2 colon
MCF7 breast = tested on: MCF7 breast
K-562 leukemia = tested on: K-562 leukemia
NCI-H460 lung = tested on: NCI-H460 lung
HS 578T breast = tested on: HS 578T breast
NCI/ADR-RES ovarian = tested on: NCI/ADR-RES ovarian
PC-3 prostate = tested on: PC-3 prostate
HT29 colon = tested on: HT29 colon
UACC-62 melanoma = tested on: UACC-62 melanoma
SK-MEL-2 melanoma = tested on: SK-MEL-2 melanoma
MDA-N = tested on: MDA-N
SR leukemia = tested on: SR leukemia
HOP-62 NSCLC = tested on: HOP-62 NSCLC
SK-MEL-5 melanoma = tested on: SK-MEL-5 melanoma
A498 renal = tested on: A498 renal
MALME-3M melanoma = tested on: MALME-3M melanoma
RXF 393 renal = tested on: RXF 393 renal
OVCAR-4 ovarian = tested on: OVCAR-4 ovarian
M14 melanoma = tested on: M14 melanoma
SK-OV-3 ovarian = tested on: SK-OV-3 ovarian
HCC-2998 colon = tested on: HCC-2998 colon
TK-10 renal = tested on: TK-10 renal
RPMI-8226 leukemia = tested on: RPMI-8226 leukemia
786-0 renal = tested on: 786-0 renal
HCT-15 colon = tested on: HCT-15 colon
BT-549 breast = tested on: BT-549 breast
SNB-75 CNS = tested on: SNB-75 CNS
HL-60(TB) leukemia = tested on: HL-60(TB) leukemia
LOX IMVI melanoma = tested on: LOX IMVI melanoma
HCT-116 colon = tested on: HCT-116 colon
NCI-H522 lung = tested on: NCI-H522 lung

Q: What does the source list for `OCCNCN(CNCCO)c1nc(N(CNCCO)CNCCO)nc(N(CNCCO)CNCCO)n1`?
A: outcome (SF-268 CNS): inactive; outcome (SK-MEL-28 melanoma): inactive; outcome (UACC-257 melanoma): inactive; outcome (HOP-92 NSCLC): inactive; TGI (DLD-1 colon): 0.405 µM; outcome (OVCAR-8 ovarian): inactive; TGI (UO-31 renal): 0.25 µM; TGI (SNB-78 CNS): 0.203 µM; outcome (T-47D breast): inactive; outcome (OVCAR-3 ovarian): inactive; TGI (A549 NSCLC): 0.257 µM; outcome (A549 NSCLC): inactive; TGI (SF-295 CNS): 0.147 µM; outcome (SF-295 CNS): inactive; outcome (U251 CNS): inactive; outcome (CAKI-1 renal): inactive; outcome (NCI-H23 lung): inactive; TGI (CCRF-CEM leukemia): 0.0602 µM; TGI (KM12 colon): 0.55 µM; outcome (SNB-19 CNS): inactive; outcome (NCI-H226 lung): inactive; outcome (SN12C renal): inactive; outcome (DU-145 prostate): inactive; TGI (COLO 205 colon): 0.0877 µM; TGI (MOLT-4 leukemia): 0.205 µM; outcome (MOLT-4 leukemia): inactive; outcome (EKVX NSCLC): inactive; outcome (ACHN renal): inactive; outcome (OVCAR-5 ovarian): inactive; outcome (MDA-MB-231 breast): inactive; outcome (IGROV1 ovarian): inactive; outcome (SW-620 colon): inactive; outcome (MDA-MB-435): inactive; outcome (SF-539 CNS): inactive; TGI (KM20L2 colon): 0.322 µM; outcome (MCF7 breast): inactive; TGI (K-562 leukemia): 0.15 µM; TGI (NCI-H460 lung): 0.354 µM; outcome (NCI-H460 lung): inactive; outcome (HS 578T breast): inactive; outcome (NCI/ADR-RES ovarian): inactive; outcome (PC-3 prostate): inactive; outcome (HT29 colon): inactive

Q: What does the source list for `CC1(c2ccc(Cl)cc2)NC(=NCCO)c2ccccc21` (stereo unspecified)?
A: TGI (SF-268 CNS): > 100 µM; TGI (UACC-62 melanoma): 32.1 µM; TGI (SK-MEL-28 melanoma): 30 µM; TGI (SK-MEL-2 melanoma): 37.7 µM; TGI (UACC-257 melanoma): 33.5 µM; TGI (MDA-N): 26.9 µM; TGI (HOP-92 NSCLC): 77.9 µM; TGI (SR leukemia): 46 µM; TGI (HOP-62 NSCLC): > 100 µM; TGI (OVCAR-8 ovarian): > 100 µM; TGI (SK-MEL-5 melanoma): 31 µM; TGI (UO-31 renal): > 100 µM; TGI (T-47D breast): > 48 µM; TGI (A498 renal): 52.6 µM; TGI (OVCAR-3 ovarian): > 100 µM; TGI (A549 NSCLC): > 100 µM; TGI (MALME-3M melanoma): 35 µM; TGI (SF-295 CNS): > 81.1 µM; TGI (U251 CNS): > 100 µM; TGI (CAKI-1 renal): > 100 µM; TGI (NCI-H23 lung): > 94.5 µM; TGI (RXF 393 renal): 57.9 µM; TGI (CCRF-CEM leukemia): 24.2 µM; TGI (KM12 colon): > 57.3 µM; TGI (SNB-19 CNS): > 100 µM; TGI (NCI-H226 lung): > 100 µM; TGI (SN12C renal): > 100 µM; TGI (DU-145 prostate): > 70.8 µM; TGI (COLO 205 colon): 28.8 µM; TGI (OVCAR-4 ovarian): > 100 µM; TGI (M14 melanoma): 25.5 µM; TGI (MOLT-4 leukemia): 37.8 µM; TGI (EKVX NSCLC): > 100 µM; TGI (ACHN renal): > 100 µM; TGI (SK-OV-3 ovarian): > 100 µM; TGI (OVCAR-5 ovarian): > 100 µM; TGI (HCC-2998 colon): 24.8 µM; TGI (TK-10 renal): > 100 µM; TGI (MDA-MB-231 breast): > 100 µM; TGI (IGROV1 ovarian): > 100 µM; TGI (SW-620 colon): > 100 µM; TGI (RPMI-8226 leukemia): 19.5 µM; TGI (MDA-MB-435): 32.6 µM; TGI (786-0 renal): 30.4 µM; TGI (SF-539 CNS): 27.3 µM; TGI (HCT-15 colon): > 100 µM; TGI (BT-549 breast): 99.7 µM; TGI (SNB-75 CNS): > 85.1 µM; TGI (HL-60(TB) leukemia): > 35.5 µM; TGI (MCF7 breast): 53.1 µM; TGI (K-562 leukemia): 33.4 µM; TGI (LOX IMVI melanoma): 32.8 µM; TGI (NCI-H460 lung): > 84.5 µM; TGI (HS 578T breast): > 95.1 µM; TGI (NCI/ADR-RES ovarian): > 100 µM; TGI (HCT-116 colon): > 100 µM; TGI (NCI-H522 lung): > 100 µM; TGI (PC-3 prostate): > 100 µM; TGI (HT29 colon): > 62.8 µM

Q: Which TGI (SF-268 CNS) does the source give for `NC(N)=N/N=C(\c1ccc(F)cc1)c1ccc(C(F)(F)F)cc1` here?
A: 9.96 µM

Q: And the TGI (UACC-62 melanoma)?
A: 1.55 µM

Q: What about the TGI (SK-MEL-28 melanoma) of the same compound?
A: 8 µM

Q: And the TGI (SK-MEL-2 melanoma)?
A: 4.06 µM

Q: And the TGI (UACC-257 melanoma)?
A: 4.63 µM

Q: And the TGI (MDA-N)?
A: 0.494 µM

Q: What about the TGI (HOP-92 NSCLC) of the same compound?
A: 8.59 µM

Q: And the TGI (SR leukemia)?
A: 1.47 µM

Q: What about the TGI (HOP-62 NSCLC) of the same compound?
A: 0.955 µM

Q: And the TGI (OVCAR-8 ovarian)?
A: 3.09 µM

Q: What about the TGI (SK-MEL-5 melanoma) of the same compound?
A: 3.67 µM

Q: What about the TGI (UO-31 renal) of the same compound?
A: 4.13 µM

Q: What about the TGI (T-47D breast) of the same compound?
A: 5.82 µM

Q: And the TGI (A498 renal)?
A: 0.333 µM

Q: And the TGI (OVCAR-3 ovarian)?
A: 1.59 µM

Q: What about the TGI (A549 NSCLC) of the same compound?
A: 4.96 µM

Q: What about the TGI (MALME-3M melanoma) of the same compound?
A: 2.53 µM

Q: What about the TGI (SF-295 CNS) of the same compound?
A: 0.817 µM

Q: And the TGI (U251 CNS)?
A: 4.72 µM

Q: And the TGI (CAKI-1 renal)?
A: 4.98 µM

Q: And the TGI (NCI-H23 lung)?
A: 7.29 µM

Q: And the TGI (RXF 393 renal)?
A: 0.633 µM

Q: And the TGI (CCRF-CEM leukemia)?
A: 5.43 µM

Q: What about the TGI (KM12 colon) of the same compound?
A: 2.04 µM

Q: And the TGI (SNB-19 CNS)?
A: 14.3 µM

Q: What about the TGI (NCI-H226 lung) of the same compound?
A: 0.783 µM

Q: And the TGI (SN12C renal)?
A: 9.05 µM

Q: What about the TGI (DU-145 prostate) of the same compound?
A: 7.76 µM

Q: What about the TGI (COLO 205 colon) of the same compound?
A: 0.877 µM

Q: What about the TGI (OVCAR-4 ovarian) of the same compound?
A: 15.9 µM

Q: And the TGI (M14 melanoma)?
A: 1.35 µM

Q: What about the TGI (MOLT-4 leukemia) of the same compound?
A: 1.44 µM

Q: And the TGI (EKVX NSCLC)?
A: 11.3 µM

Q: What about the TGI (ACHN renal) of the same compound?
A: 10.1 µM

Q: And the TGI (SK-OV-3 ovarian)?
A: 4.94 µM

Q: And the TGI (OVCAR-5 ovarian)?
A: 9.74 µM

Q: And the TGI (HCC-2998 colon)?
A: 1.75 µM

Q: What about the TGI (TK-10 renal) of the same compound?
A: 13.6 µM

Q: What about the TGI (MDA-MB-231 breast) of the same compound?
A: 1.15 µM

Q: And the TGI (IGROV1 ovarian)?
A: 1.49 µM

Q: What about the TGI (SW-620 colon) of the same compound?
A: 2.04 µM

Q: What about the TGI (RPMI-8226 leukemia) of the same compound?
A: 2.21 µM

Q: And the TGI (MDA-MB-435)?
A: 0.298 µM

Q: What about the TGI (786-0 renal) of the same compound?
A: 1.59 µM

Q: What about the TGI (SF-539 CNS) of the same compound?
A: 0.749 µM

Q: What about the TGI (HCT-15 colon) of the same compound?
A: 7.45 µM

Q: And the TGI (BT-549 breast)?
A: 4.02 µM

Q: What about the TGI (SNB-75 CNS) of the same compound?
A: 7.77 µM

Q: What about the TGI (HL-60(TB) leukemia) of the same compound?
A: 0.762 µM

Q: And the TGI (MCF7 breast)?
A: 2.15 µM

Q: What about the TGI (K-562 leukemia) of the same compound?
A: 2.08 µM

Q: And the TGI (LOX IMVI melanoma)?
A: 1.64 µM

Q: What about the TGI (NCI-H460 lung) of the same compound?
A: 2.09 µM

Q: And the TGI (HS 578T breast)?
A: 1.85 µM

Q: What about the TGI (NCI/ADR-RES ovarian) of the same compound?
A: 4.35 µM

Q: And the TGI (HCT-116 colon)?
A: 1.28 µM

Q: What about the TGI (NCI-H522 lung) of the same compound?
A: 0.525 µM

Q: And the TGI (PC-3 prostate)?
A: 5.51 µM

Q: What about the TGI (HT29 colon) of the same compound?
A: 4.98 µM
